Assays:
[1] = molecular target: SARS-COV-2 polymerase NSP12 (Severe acute respiratory syndrome coronavirus 2, UniProt P0DTD1); test: SARS-CoV-2 RNA polymerization assay with RdRp catalytic domain, PAGE gel (FIG. 2); assay type: biochemical; details: rATP split 50:50 with compound, 37° C. for 2 h
Polymerase = test: SYBR Green qPCR with modified adenosine analogues added, Ct measured; assay type: biochemical; details: for effect on amplification of the template (qPCR): dose-dependent, efficacy higher for phosphate than hydroxyl at same concentration
Method: In a second set of experiments, the modified adenosine analogues were added in a SYBR Green qPCR mix, and reactions performed using the same template and primers as above. The Ct (Threshold Cycle) parameter was measured for each condition. The Ct is the cycle number at which the fluorescence generated within a reaction crosses the fluorescence threshold. The higher the Ct, the lower the amount of product (or lower expression).
At the same concentration, the efficacy of inhibition of amplification was higher for phosphate than hydroxyl.

[2] = gene 18SrRNA, substance 0.075 mM (Final)
[3] = gene 18SrRNA, substance 0.15 mM (Final)
[4] = gene 18SrRNA, substance 0.3 mM (Final)
[5] = gene ACTB, substance 0.075 mM (Final)
[6] = gene ACTB, substance 0.15 mM (Final)
[7] = gene ACTB, substance 0.3 mM (Final)

Nc1ncnc2c1ncn2C1OC(COP(=O)(O)OP(=O)(O)OP(=O)(O)O)CC1O.[Na] (stereo not drawn) [commercial inhibitor, Cordycepin 5′-triphosphate sodium salt, reference compound]
in vitro replication of the SARS-CoV-2 RNA via the SARS-CoV-2 RNA polymerase [1]: polymerization blocked

Nc1ncnc2c1ncn2-c1nc(O)c2ccccc2n1 [Compound A, 2-(6-amino-9H-purin-9-yl)quinazolin-4-ol]
in vitro replication of the SARS-CoV-2 RNA via the SARS-CoV-2 RNA polymerase [1]: inhibits | effect on amplification of the template (qPCR) (Polymerase): decrease of the amplification of the template | Ct Mean (Polymerase; [2]): 12.88 | Ct Mean (Polymerase; [3]): 13.43 | Ct Mean (Polymerase; [4]): 14.84 | Ct Mean (Polymerase; [5]): 20.08 | Ct Mean (Polymerase; [6]): 20.55 | Ct Mean (Polymerase; [7]): 21.14

Nc1ncnc2c1ncn2-c1nc(O)c2ccc(F)cc2n1 [Compound B, 2-(6-amino-9H-purin-9-yl)-7-fluoro-quinazolin-4-ol]
in vitro replication of the SARS-CoV-2 RNA via the SARS-CoV-2 RNA polymerase [1]: inhibits

Nc1ncnc2c1ncn2-c1nc(OP(=O)(O)O)c2ccccc2n1 [Compound C, 2-(6-amino-9H-purin-9-yl)quinazolin-4-yl dihydrogen phosphate]
in vitro replication of the SARS-CoV-2 RNA via the SARS-CoV-2 RNA polymerase [1]: inhibits | effect on amplification of the template (qPCR) (Polymerase): decrease of the amplification of the template | Ct Mean (Polymerase; [2]): 12.78 | Ct Mean (Polymerase; [3]): 13.70 | Ct Mean (Polymerase; [4]): 15.98 | Ct Mean (Polymerase; [5]): 20.15 | Ct Mean (Polymerase; [6]): 20.91 | Ct Mean (Polymerase; [7]): 21.82
